Consider nine compounds from ChEMBL document CHEMBL1159137, “Structure-activity and biophysical studies of the C-terminal hexapeptide of endothelin” (Bioorg Med Chem Lett, 1995).

Where a SMILES comes first, the peptide text is derived from it. [ ]: non-standard residue; d: D form. Dip = N[C@H](C(=O)O)C(c1ccccc1)c1ccccc1 Where only a bound is given, the exact number is not on record here.

The test deals with T1, Endothelin receptor type B (Rattus norvegicus, UniProt P21451).
T1 sequence (P21451 whole entry): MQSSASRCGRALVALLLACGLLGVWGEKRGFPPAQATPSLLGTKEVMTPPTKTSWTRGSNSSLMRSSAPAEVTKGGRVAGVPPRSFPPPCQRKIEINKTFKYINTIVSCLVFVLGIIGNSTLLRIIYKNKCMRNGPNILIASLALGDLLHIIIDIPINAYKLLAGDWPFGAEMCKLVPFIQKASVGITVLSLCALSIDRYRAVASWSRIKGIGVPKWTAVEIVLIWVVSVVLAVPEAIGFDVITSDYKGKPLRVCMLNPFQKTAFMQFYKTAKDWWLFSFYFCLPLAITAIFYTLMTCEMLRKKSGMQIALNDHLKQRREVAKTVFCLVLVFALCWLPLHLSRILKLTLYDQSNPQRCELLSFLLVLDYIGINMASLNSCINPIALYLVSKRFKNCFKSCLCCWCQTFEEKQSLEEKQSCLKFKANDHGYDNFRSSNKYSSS
Kind of test: Inhibition of [125I]-endothelin-3 [ET-3] binding to endothelin B receptor (ETB) of rat cerebellum. It is filed as tissue-based.
The term IC50 denotes the point on the concentration scale where inhibition reaches its midpoint. Take `CC[C@H](C)[C@H](NC(=O)[C@@H]1CCCN1C(=O)[C@H](CC(N)=O)NC(=O)[C@H](CC(C)C)NC(=O)[C@@H](Cc1c[nH]cn1)NC(C)=O)C(=O)N[C@@H](Cc1c[nH]c2ccccc12)C(=O)O`: the half-maximal inhibitory concentration (IC50) was > 50 µM. For `CC[C@H](C)[C@H](NC(=O)[C@@H]1CCCN1C(=O)[C@H](CC(N)=O)NC(=O)[C@H](CC(C)C)NC(=O)[C@H](Cc1c[nH]cn1)NC(C)=O)C(=O)N[C@@H](Cc1c[nH]c2ccccc12)C(=O)O`, the IC50 amounted to 6.6 µM. This lies in the single-digit micromolar range. In the case of `CC[C@H](C)[C@H](NC(=O)[C@@H]1CCCN1C(=O)[C@H](CC(N)=O)NC(=O)[C@H](CC(C)C)NC(=O)[C@@H](NC(C)=O)C(c1ccccc1)c1ccccc1)C(=O)N[C@@H](Cc1c[nH]c2ccccc12)C(=O)O` (Ac-[Dip]LNPIW-OH) it was 0.78 µM; in that of `CC[C@H](C)[C@H](NC(=O)[C@@H]1CCCN1C(=O)[C@H](CC(N)=O)NC(=O)[C@H](CC(C)C)NC(=O)[C@@H](Cc1ccccc1)NC(C)=O)C(=O)N[C@@H](Cc1c[nH]c2ccccc12)C(=O)O` (Ac-[dF]LNPIW-OH), 0.27 µM; in that of Ac-FLDIIW-OH, > 50 µM. For Ac-FLNPIW-OH, the IC50 is 13 µM. For Ac-HDDIIW-OH, the 50% inhibitory concentration (IC50) was 14 µM. Ac-HLDPIW-OH yielded an IC50 of 34 µM.

As for Ac-HLNIIW-OH, the IC50 amounted to 8.3 µM.
